Patent US20100311803A1, “METHOD FOR REDUCING INFLAMMATORY RESPONSES AND INFLAMMATION” (Adelaide Research & Innovation Pty Ltd, priority 2006, published 2010)

What was measured:
[1] = Evan's blue leakage into brain tissue (blood brain barrier) after diffuse axonal brain injury; type: in vivo; conditions: rat diffuse axonal injury
Method: (§1) We chose to use the compound N-acetyl-L-tryptophan. To induce a primary brain injury a rat model of diffuse axonal injury was used (Heath D L and Vink R (1997). Magnesium sulphate improves neurologic outcome following severe closed head injury in rats. Neurosci Lett; 228: 175-8). N-acetyl-L-tryptophan was then administered intravenously 30 minutes after injury, whilst control animals received drug vehicle alone.

IL-1β mRNA = IL-1β mRNA expression in brain tissue after brain injury (RT-PCR); type: in vivo, rat; conditions: 10^−5 mol/kg i.v. 30 minutes after injury; brain tissue at 6 hours after injury; normalised to rpL32 (FIG. 2)
Method: (§2) In order to examine the effects on the cellular inflammatory response, N-acetyl-L-tryptophan was administered intravenously at a dose of 10^−5 mol/kg after injury. The expression of mRNA for the inflammatory cytokines IL-1β, IL-6 and TNFα in brain tissue was determined by reverse transcription followed by a polymerase chain reaction (RT-PCR). mRNA levels were normalised with respect to expression of rpL32. Brain tissue samples were collected at 6 hours after injury. Levels of expression of mRNA for the inflammatory cytokines were compared in non-injured animals (sham), injured animals administered drug vehicle alone (control), and injured animals administered a substance P receptor antagonist (NK1). mRNA expression was determined for IL-1β (FIG. 2), IL-6 (FIG. 3) and TNFα (FIG. 4).

IL-6 mRNA = IL-6 mRNA expression in brain tissue after brain injury (RT-PCR); type: in vivo, rat; conditions: 10^−5 mol/kg i.v. 30 minutes after injury; brain tissue at 6 hours after injury; normalised to rpL32 (FIG. 3)
Method: as §2

TNFα mRNA = TNFα mRNA expression in brain tissue after brain injury (RT-PCR); type: in vivo, rat; conditions: 10^−5 mol/kg i.v. 30 minutes after injury; brain tissue at 6 hours after injury; normalised to rpL32 (FIG. 4)
Method: as §2

[2] = Functional outcome and mortality of brain-injured animals; type: in vivo, rat; conditions: brain injury; administered after injury
Method: as §1
In order to examine the effects on the cellular inflammatory response, N-acetyl-L-tryptophan was administered intravenously at a dose of 10^−5 mol/kg after injury.

serum interleukin 6 = test: Serum IL-6 levels (ELISA) after systemic insult (trauma; trauma plus hypoxia and hypotension); type: in vivo, rat; conditions: 10^−5 mol/kg i.v. 30 minutes after the insult
Method: A whole variety of severe insults are capable of triggering a systemic inflammatory response, and subsequent shock reaction. Two approaches were used in these studies, namely trauma (diffuse axonal injury), and an extended period of hypoxia and hypotension. N-acetyl-L-tryptophan was administered intravenously 30 minutes after the insult, whilst control animals received drug vehicle alone. A systemic inflammatory response, generated as a result of these triggers, was determined by a rise in serum interleukin 6 levels. Blood samples were collected at 6 hours after the insult. Changes in serum IL-6 levels were quantified using an enzyme-linked immunosorbent assay (ELISA). In order to examine the effects of an NK1 antagonist on the systemic inflammatory response, N-acetyl-L-tryptophan was administered intravenously at a dose of 10^−5 mol/kg 30 minutes after the insult. Serum levels of IL-6 were compared between animals that were not subject to any insult (sham), animals subject to an insult and then administered drug vehicle alone (control), and animals subject to an insult and administered a substance P receptor antagonist (NK1). IL-6 levels were determined following trauma (FIG. 5), and trauma followed by 15 minutes of hypoxia and hypotension (FIG. 6).

[3] = Functional outcome and recovery after trauma or trauma plus hypoxia and hypotension; type: in vivo, rat; conditions: either trauma, or trauma plus hypoxia and hypotension
Method: A whole variety of severe insults are capable of triggering a systemic inflammatory response, and subsequent shock reaction. Two approaches were used in these studies, namely trauma (diffuse axonal injury), and an extended period of hypoxia and hypotension. N-acetyl-L-tryptophan was administered intravenously 30 minutes after the insult, whilst control animals received drug vehicle alone. […] This level of recovery was never seen in the non-treated animals.

CC(=O)N[C@@H](Cc1c[nH]c2ccccc12)C(=O)O [N-acetyl-L-tryptophan]
closure of the blood-brain barrier, dependence on dose ([1]; intravenously 30 minutes after injury (FIG. 1)): dose-dependent manner | leakage of Evan's blue dye into the brain tissue (closure of the blood brain barrier) ([1]; intravenously 30 minutes after injury, vs vehicle control (FIG. 1)): reduced leakage | expression of IL-1β mRNA in brain tissue with respect to non-injured animals (IL-1β mRNA): no significant differences | expression of IL-6 mRNA in brain tissue with respect to non-injured animals (IL-6 mRNA): no significant differences | expression of TNFα mRNA in brain tissue with respect to non-injured animals (TNFα mRNA): no significant differences | functional outcome of the injured animals (motor, cognitive and behavioural outcomes) [2]: significantly improved | mortality [2]: significant reduction | serum IL-6 levels with respect to sham animals (serum interleukin 6; trauma (diffuse axonal injury), blood at 6 hours (FIG. 5)): no significant differences | serum IL-6 levels with respect to sham animals (serum interleukin 6; trauma followed by 15 minutes of hypoxia and hypotension, blood at 6 hours (FIG. 6)): no significant differences | time to normal physiological (spontaneous breathing) and behavioural (feeding and grooming) responses after treatment [3]: ≤ 60 minutes | functional outcome of the animals ([3]; i.v. 30 minutes after the insult): significantly improved
